According to US10035766B2, “Compositions for preventing and/or treating lysosomal storage disorders” (Amicus Therapeutics, Inc., priority 2009, dated 2018):
Counter-ions that a name gives are not always drawn.

Legend:
lysosomal GCase = target: T1, lysosomal GCase (Homo sapiens, UniProt P04062); assay: In situ lysosomal GCase inhibition and washout in fibroblasts from a normal subject (PFBFDβGlu substrate); assay type: cell-based; details: for in situ washout: after 16-24 hours at IC90, single exponential fit of activity recovery over 8 hours
T1 construct: fibroblasts established from a normal subject; endogenous in cells; host or cells: fibroblasts established from a normal subject
T1 sequence (P04062 40-536): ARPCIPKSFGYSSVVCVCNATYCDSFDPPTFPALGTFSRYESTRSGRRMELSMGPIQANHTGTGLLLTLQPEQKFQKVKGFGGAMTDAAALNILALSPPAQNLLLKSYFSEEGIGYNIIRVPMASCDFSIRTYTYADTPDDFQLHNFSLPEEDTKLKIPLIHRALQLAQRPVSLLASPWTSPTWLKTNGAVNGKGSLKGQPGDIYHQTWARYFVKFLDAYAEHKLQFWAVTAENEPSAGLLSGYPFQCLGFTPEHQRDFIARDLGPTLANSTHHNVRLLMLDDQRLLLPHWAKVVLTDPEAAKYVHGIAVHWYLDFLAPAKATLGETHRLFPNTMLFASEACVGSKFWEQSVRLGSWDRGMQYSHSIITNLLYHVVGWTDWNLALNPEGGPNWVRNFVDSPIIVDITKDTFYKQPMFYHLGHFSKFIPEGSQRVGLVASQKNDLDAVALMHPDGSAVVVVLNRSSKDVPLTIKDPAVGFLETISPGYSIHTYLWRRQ
Experimental: The effect of the novel compounds of the present invention on lysosomal GCase activity was assayed in situ using fibroblasts established from a normal subject. Cells seeded in 48-well plates were incubated with the indicated concentrations of compound for 16-24 hours. For the dose-response assays, cells were incubated with the in situ substrate 5-(pentafluorobenzoylamino)fluorescein di-β-D-glucopyranoside (PFBFDβGlu) for 1 hour and subsequently lysed to determine the extent of substrate hydrolysis in the presence of compound. […] Inhibition was determined as the ratio of activity in the presence of compound to that in the absence of compound. […] Cells were washed extensively and incubated in drug-free medium to allow net compound efflux from cells. Cells were then tested for lysosomal GCase activity at 2 hour intervals over a total period of 8 hours following compound removal. The increase in activity over time was fitted with a single exponential function to determine the compound's washout time.

GCase = target: T2, GCase (Mus musculus, UniProt P17439); assay: GCase enhancement in brain and spleen after oral dosing over 2 weeks; assay type: in vivo, mice; design: from tissue; host or cells: brain and spleen of wild-type C57BL/6 mice; details: for GCase increase (fold): 9 doses, 24-hour washout; for GCase enhancement in brain and spleen: mice, p.o.
T2 sequence (P17439 20-515): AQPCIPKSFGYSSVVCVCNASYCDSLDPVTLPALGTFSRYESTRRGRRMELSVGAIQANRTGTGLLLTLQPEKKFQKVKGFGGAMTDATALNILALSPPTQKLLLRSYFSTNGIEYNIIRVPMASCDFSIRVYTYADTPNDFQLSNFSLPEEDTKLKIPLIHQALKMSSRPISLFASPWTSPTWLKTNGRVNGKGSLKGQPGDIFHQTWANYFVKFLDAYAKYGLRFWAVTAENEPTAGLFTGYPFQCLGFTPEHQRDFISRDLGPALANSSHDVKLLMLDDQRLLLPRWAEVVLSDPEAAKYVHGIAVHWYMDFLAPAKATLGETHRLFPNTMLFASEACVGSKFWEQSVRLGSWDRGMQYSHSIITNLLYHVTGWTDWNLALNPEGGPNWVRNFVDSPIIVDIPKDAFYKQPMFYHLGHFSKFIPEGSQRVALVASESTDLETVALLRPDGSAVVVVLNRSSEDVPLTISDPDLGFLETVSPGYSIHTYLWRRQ
Experimental: The ability of orally administered test compounds ((3R,4R,5S)-5-(difluoromethyl)piperidine-3,4-diol, (3R,4R,5S)-5-(1-fluoroethyl)piperidine-3,4-diol, (3R,4R,5S)-5-((R)-1-fluoropropyl)piperidine-3,4-diol hydrochloride, or (3R,4R,5S)-5-benzylpiperidine-3,4-diol) to elevate GCase levels was assessed in mice. For this purpose, 8-week old wild-type male mice (C57BL/6) were administered a single p.o. (gavage) dose of a compound of the present invention (i.e., (3R,4R,5S)-5-(difluoromethyl)piperidine-3,4-diol, (3R,4R,5S)-5-(1-fluoroethyl)piperidine-3,4-diol, (3R,4R,5S)-5-((R)-1-fluoropropyl)piperidine-3,4-diol hydrochloride, or (3R,4R,5S)-5-benzylpiperidine-3,4-diol). The dosing solutions were prepared in water. Compounds were administered over 2 weeks as follows: week 1, Mon-Fri (On), Sat-Sun (Off); week 2, Mon-Thu (On); necropsy on Friday. Thus, a total of 9 doses (dosing solutions prepared fresh every day) were given to each mouse, with a 24-hour washout between the last dose and necropsy.
Plasma was collected by spinning blood at 2700 g for 10 minutes at 4° C. Liver, spleen, lung, and brain tissues were removed, washed in cold PBS, blotted dry, flash frozen on dry ice, and stored at −80° C. until analysis. GCase levels were measured by homogenizing approximately 50 mg tissue in 500 μL McIlvane (MI) buffer (100 mM sodium citrate, 200 mM sodium phosphate dibasic, 0.25% sodium taurocholate, and 0.1% Triton X-100, pH 5.2) at pH 5.2 for 3-5 seconds on ice with a micro homogenizer. Homogenates were then incubated at room temperature without and with 2.5 mM conduritol-B-epoxide (CBE) for 30 min. Finally, 3.7 mM 4-methylumbeliferryl-β-glucoside (4-MUG) substrate was added and incubated at 37° C. for 60 min. […] Fluorescence was measured on a plate reader for 1 sec/well using 355 nm excitation and 460 nm emission. Total protein was determined in lysates using the MicroBCA kit according to the manufacturer's instructions. A 4-methylumbelliferone (4-MU) standard curve ranging from 1.0 nM to 50 μM was run in parallel for conversion of raw fluorescence data to absolute GCase activity (in the presence and absence of CBE) and expressed as nanomoles of 4-MU released per milligram of protein per hour (nmol/mg protein/hr). GCase levels and protein levels were calculated using Microsoft Excel (Redmond, Wash.) and GraphPad Prism version 4.02.

[1] = brain, 10 mg/kg FBE p.o., (1) BLQ <[…], (2) BLQ <2.2 nmol/kg
[2] = spleen, 10 mg/kg FBE p.o., (1) BLQ <6.8 nmol/kg, (2) BLQ <7.9 nmol/kg
[3] = spleen, 10 mg/kg FBE p.o., in µM
[4] = spleen, 100 mg/kg FBE p.o., in µM

inhibition of GCase activity (lysosomal GCase) | GCase increase (fold) (GCase; brain, 10 mg/kg FBE p.o.) | Compound concentration in GCase assay (GCase; spleen, 10 mg/kg FBE p.o.) | Compound concentration in GCase assay (μM) (GCase; brain, 10 mg/kg FBE p.o.) | GCase increase (fold) (GCase; brain, 100 mg/kg FBE p.o.) | GCase increase (fold) (GCase; spleen, 10 mg/kg FBE p.o.) | GCase increase (fold) (GCase; spleen, 100 mg/kg FBE p.o.) | Compound | in situ washout from the lysosomal compartment compared to IFG-tartrate (lysosomal GCase) | GCase enhancement in brain and spleen (GCase) | Compound concentration in tissue 2.2 nmol/kg (GCase; [1]) | Compound concentration in tissue 2.2 nmol/kg (GCase; brain, 100 mg/kg FBE p.o.) | Compound concentration in tissue (GCase; [2]) | Compound concentration in GCase assay (GCase; [3]) | Compound concentration in tissue (GCase; spleen, 100 mg/kg FBE p.o.) | Compound concentration in GCase assay (GCase; [4]) | in situ washout (lysosomal GCase)
inhibited GCase activity | 1.5 fold | BLQ | – | – | – | – | CC(F)[C@H]1CNC[C@@H](O)[C@@H]1O (single isomer, unassigned) | considerably faster than reference compound IFG-tartrate | significant GCase enhancement in brain and spleen | – | – | – | – | – | – | –
inhibited GCase activity | 0.9 fold | – | BLQ | 1.1 fold | 0.7 fold | 0.7 fold | CC[C@@H](F)[C@H]1CNC[C@@H](O)[C@@H]1O.Cl [(3R,4R,5S)-5-((R)-1-fluoropropyl)-piperidine-3,4-diol hydrochloride] | – | – | BLQ(2) | 38 nmol/kg | 21 nmol/kg | 0.0001 | 60 nmol/kg | 0.0002 | –
inhibited GCase activity | 1.2 fold | – | – | 1.4 fold | 1.0 fold | 1.2 fold | O[C@@H]1[C@@H](Cc2ccccc2)CNC[C@H]1O [(3R,4R,5S)-5-benzyl-piperidine-3,4-diol] | considerably faster than reference compound IFG-tartrate | significant GCase enhancement in brain and spleen | – | – | – | – | – | – | 1.2 ± 0.13 h

Compound | inhibition of GCase activity (lysosomal GCase) | GCase increase (fold) (GCase; brain, 10 mg/kg FBE p.o.) | Compound concentration in GCase assay (GCase; spleen, 10 mg/kg FBE p.o.) | Compound concentration in GCase assay (μM) (GCase; brain, 10 mg/kg FBE p.o.) | GCase increase (fold) (GCase; brain, 100 mg/kg FBE p.o.) | GCase increase (fold) (GCase; spleen, 10 mg/kg FBE p.o.) | GCase increase (fold) (GCase; spleen, 100 mg/kg FBE p.o.) | in situ washout from the lysosomal compartment compared to IFG-tartrate (lysosomal GCase) | GCase enhancement in brain and spleen (GCase) | Compound concentration in tissue 2.2 nmol/kg (GCase; [1]) | Compound concentration in tissue 2.2 nmol/kg (GCase; brain, 100 mg/kg FBE p.o.) | Compound concentration in tissue (GCase; [2]) | Compound concentration in GCase assay (GCase; [3]) | Compound concentration in tissue (GCase; spleen, 100 mg/kg FBE p.o.) | Compound concentration in GCase assay (GCase; [4]) | in situ washout (lysosomal GCase)
O[C@H]1[C@H](O)CNC[C@@H]1C(F)F [Compound 6, (3R,4R,5S)-5-(Difluoromethyl)piperdine 3,4-diol Hydrochloride] | inhibited GCase activity | – | – | – | – | – | – | considerably faster than reference compound IFG-tartrate | significant GCase enhancement in brain and spleen | 55 nmol/kg | 301 nmol/kg | 100 nmol/kg | 0.0003 | 435 nmol/kg | 0.0015 | 2.1 ± 0.30 h
